In brackets after ≈: the same amount, converted by molar mass. Where two headings read alike, the source gives them in different places.
Key:
S. aureus ATCC 29213 [1] = conditions: CLSI M100-Ed34E, cited from earlier work
P. mirabilis LSI 4933 [2] = assay: CytoSPAR BLAST antibiotic susceptibility test; type: cell-based
Source text: (§1) The disclosed technology, which is referred to as the CytoSPAR BLAST (Bacteria Labeling Antibiotic Susceptibility Test) system, is used to quantitatively assess bacterial minimal inhibitory concentration of antibiotics for in vitro susceptibility testing. Used as an aid in diagnosis for clinicians in determining potential treatment options for patients suspected of having a microbial infection, BLAST is intended to determine susceptibility of microorganisms to the listed antibiotics (or other antimicrobials) according to manufacturer's standards. The system is intended for use with clinical isolates from liquid culture and colonies grown on agar (solid medium) or directly from urine samples. Certain implementations of BLAST determine antibiotic susceptibility for a wide range of bacteria obtained from various types of patient samples, including samples from individuals suffering from urinary tract infections. The disclosed technology includes a high-throughput assay that directly detects bacterial susceptibility to a library of frequently used antibiotics and covers both Gram-negative and Gram-positive bacteria.
(§2) The test incorporates a non-canonical amino acid (ncAA) into newly produced proteins. The incorporated ncAA includes a reactive group which allows a specific modification and detection of the living bacteria. The assay involves bacterial incorporation of the ncAA, a chemical reaction between a reactive group and a fluorophore-tagged ligand, and detection of the newly fluorescent-tagged bacteria using a fluorescent plate reader or functionally similar device. The ncAA is added to bacterial growth media and is incorporated into newly synthesized bacterial proteins. The reactive groups on the ncAA are not naturally found in bacteria and act as a specific reactive group for bacteria undergoing active protein synthesis. […] The entire process is performed in a microtiter filter plate for high-throughput scale-up. Alternatively, a normal 96-well plate can also be used in which case centrifugation is used to wash the plate instead of filtration.
(§3) In an example embodiment, bacterial samples are first diluted and incubated in acclimatization media. After treatment with one or more antimicrobials, the ncAA is added and is taken up by living bacteria during protein biosynthesis in a process called labeling. […] The Click-Chemistry reaction between the alkyne group of the ncAA and the azide group of the fluorophore-tagged ligand requires the presence of copper in the reduced state-copper (I). In other implementations, the functional groups of the click chemistry reaction can be changed so that the ncAA has the azide group and the dye has the alkyne group. […] Other reducing agents may be used in the BLAST assay, for example, aldoses (sugars) including glyceraldehyde, glucose, and ribose to replace sodium ascorbate. Likewise, alternate chelators may be used (e.g., histidine in place of BTTAA). In some implementations, metal-free click chemistry reactions are performed without using copper.
(§4) Using the BLAST system, tests can be performed on isolates or direct urine samples. Isolates may be from urine, blood, or other body fluids. Isolated bacteria may be either Gram-positive or Gram-negative. In an example implementation, living bacterial samples in acclimatization media (Buffer A) are distributed in a microtiter filter plate, wherein certain predetermined wells include antibiotics of interest at different concentrations. These antibiotics are arrayed with increasing concentrations in adjacent wells so that the bacterial response can be measured against each specific concentration. The response is measured quantitatively, and a value that corresponds to the ability of the bacteria to metabolize and grow is measured.

E. coli ATCC 25922 [3] = assay: CytoSPAR BLAST antibiotic susceptibility test; type: cell-based; conditions: for MIC: Escherichia coli
Source text: as §1, §2, §3, §4

P. mirabilis LSI 4698 = assay: CytoSPAR BLAST antibiotic susceptibility test; type: cell-based
Source text: as §1, §2, §3, §4

E. coli LSI 770 = assay: CytoSPAR BLAST antibiotic susceptibility test; type: cell-based; conditions: E. coli LSI 770; for MIC: Escherichia coli, LSI770
Source text: as §1, §2, §3, §4

P. aeruginosa ATCC 27853 [4] = assay: CytoSPAR BLAST antibiotic susceptibility test; type: cell-based
Source text: as §1, §2, §3, §4

S. aureus ATCC 29213 [5] = assay: CytoSPAR BLAST antibiotic susceptibility test; type: cell-based; conditions: for MIC: Staphylococcus aureus
Source text: as §1, §2, §3, §4

K. pneumoniae LSI CT1045 [6] = assay: CytoSPAR BLAST antibiotic susceptibility test; type: cell-based
Source text: as §1, §2, §3, §4

K. pneumoniae LSI 4552 [7] = assay: CytoSPAR BLAST antibiotic susceptibility test; type: cell-based
Source text: as §1, §2, §3, §4

E. coli = conditions: stated with the CLSI QC range in FIG. 22 legend; cited from earlier work
P. mirabilis LSI 4933 [8] = assay: reference broth microdilution (rBMD); type: cell-based; conditions: Proteus mirabilis, LSI4933
Procedure: (§5) Following optimization of the BLAST assay, two other tests were performed in which 12 antibiotics (covering different classes) and 8 bacterial strains (Gram-positive and Gram-negative) were assayed using the same method as described above. Different bacterial strains were tested against different antibiotics and for each pair tested, the BLAST MIC value was compared to the CLSI QC range where available, or to the reference broth microdilution (rBMD) MIC which was determined in parallel with the BLAST assay following the CLSI protocols (see references [9]).

K. pneumoniae LSI CT1045 [9] = assay: reference broth microdilution (rBMD); type: cell-based; conditions: Klebsiella pneumoniae, LSICT1045
Procedure: as §5

K. pneumoniae LSI 4552 [10] = assay: reference broth microdilution (rBMD); type: cell-based; conditions: Klebsiella pneumoniae, LSI4552
Procedure: as §5

P. aeruginosa ATCC 27853 [11] = conditions: CLSI M100-Ed34E; cited from earlier work
E. coli ATCC 25922 [12] = assay: reference broth microdilution (rBMD); type: cell-based; conditions: Escherichia coli, ATCC25922, Table 7, geometric mean MIC rounded to nearest 2-fold dilution, n = 3
Procedure: as §5
The inoculated urine cultures were incubated overnight at 35+2° C. Each urine culture was centrifuged, and the sediment used to prepare the BLAST inoculum of 5.0×10^5 CFU/mL to start the assay as described in the protocols section. […] The spiked urine samples were tested in parallel with isolates and the resultant BLAST MIC values were compared. In addition to the BLAST test, all the samples were also tested using the reference broth microdilution (rBMD) method and the MIC values were compared.

[13] = susceptible, intermediate, resistant category

In the case of `C[C@H]1COc2c(N3CCN(C)CC3)c(F)cc3c(=O)c(C(=O)O)cn1c23` [Levofloxacin, levofloxacin], the “MIC CLSI QC Range” value (S. aureus ATCC 29213 [1]; listed as levofloxacin) is given as 0.063 to 0.5 µg/mL, the “MIC CLSI QC Range” value (S. aureus ATCC 29213 [1]) is given as 0.06 to 0.5 µg/mL and the MIC (P. mirabilis LSI 4933 [2]; Proteus mirabilis, LSI4933, Table 7) is given as 1.1 µg/mL (≈ 3.04 µM). The “S, I, R” value (P. mirabilis LSI 4933 [2]; [13]) was “Susceptible”, the MIC (E. coli ATCC 25922 [3]; ATCC25922, Table 7, read-out: MIC BLAST) was 0.01 µg/mL (≈ 0.0277 µM) and the MIC (E. coli ATCC 25922 [3]; ATCC25922, read-out: MIC BLAST Isolates, Table 8, isolates, 5 × 10^5 CFU/mL) was 0.01 µg/mL (≈ 0.0277 µM). The MIC (E. coli ATCC 25922 [3]; ATCC25922, read-out: MIC BLAST Spiked Urine, Table 8, spiked urine sample, 5 × 10^5 CFU/mL) was 0.01 µg/mL (≈ 0.0277 µM), the “S, I, R” value (E. coli ATCC 25922 [3]; [13]) was “Susceptible” and the MIC (P. mirabilis LSI 4698; Proteus mirabilis, LSI4698, Table 7) was 8.9 µg/mL (≈ 24.6 µM). For the same molecule, the “S, I, R” value (P. mirabilis LSI 4698; [13]) was “Susceptible”, the “S, I, R” value (E. coli LSI 770; [13]) was “Resistant” and the MIC (E. coli LSI 770; Table 7, read-out: MIC BLAST) was 36 µg/mL (≈ 99.6 µM). For the same molecule, the MIC (E. coli LSI 770; Table 8, isolates, 5 × 10^5 CFU/mL, read-out: MIC BLAST Isolates) was 35.6 µg/mL (≈ 98.5 µM), the MIC (E. coli LSI 770; Table 8, spiked urine sample, 5 × 10^5 CFU/mL, read-out: MIC BLAST Spiked Urine) was 35.6 µg/mL (≈ 98.5 µM) and the MIC (P. aeruginosa ATCC 27853 [4]; Pseudomonas aeruginosa, ATCC27853, Table 6, optimized BLAST) was 8 µg/mL (≈ 22.1 µM). The “S, I, R” value (P. aeruginosa ATCC 27853 [4]; [13]) was “Susceptible”, the “S, I, R” value (S. aureus ATCC 29213 [5]; S. aureus ATCC 29213, susceptible, intermediate, resistant category) was “Susceptible” and the MIC (S. aureus ATCC 29213 [5]; ATCC29213, S. aureus ATCC 29213, 5×10^6 CFUs/mL, cutoff 0.8, FIGS. 19-21, read-out: BLAST MIC) was 0.125 µg/mL (≈ 0.346 µM). The MIC (S. aureus ATCC 29213 [5]; ATCC29213, Table 7, S. aureus ATCC 29213, read-out: MIC BLAST) was 0.28 µg/mL (≈ 0.775 µM), the MIC (S. aureus ATCC 29213 [5]; ATCC29213, Table 8, S. aureus ATCC 29213, isolates, 5 × 10^5 CFU/mL, read-out: MIC BLAST Isolates) was 0.28 µg/mL (≈ 0.775 µM) and the MIC (S. aureus ATCC 29213 [5]; ATCC29213, Table 8, S. aureus ATCC 29213, spiked urine sample, 5 × 10^5 CFU/mL, read-out: MIC BLAST Spiked Urine) was 0.28 µg/mL (≈ 0.775 µM). For the same molecule, the MIC (K. pneumoniae LSI CT1045 [6]; Klebsiella pneumoniae, LSICT1045, Table 7) was over 71 µg/mL, the “S, I, R” value (K. pneumoniae LSI CT1045 [6]; [13]) was “Resistant” and the MIC (K. pneumoniae LSI 4552 [7]; Klebsiella pneumoniae, LSI4552, Table 7) was 0.06 µg/mL (≈ 0.166 µM). The “S, I, R” value (K. pneumoniae LSI 4552 [7]; [13]) was “Susceptible”, the breakpoint (E. coli) was 0.5 µg/mL and the MIC (P. mirabilis LSI 4933 [8]) was 1 µg/mL (≈ 2.77 µM). The MIC (K. pneumoniae LSI CT1045 [9]) was 128 µg/mL (≈ 354 µM), the MIC (K. pneumoniae LSI 4552 [10]) was 0.12 µg/mL (≈ 0.332 µM) and the “MIC CLSI QC Range” value (P. aeruginosa ATCC 27853 [11]) was 0.5 to 4.0 µg/mL. The MIC (E. coli ATCC 25922 [12]) was 0.02 µg/mL (≈ 0.0553 µM).

Source: US20250115943A1, “SYSTEM AND METHOD FOR ANTIMICROBIAL SUSCEPTIBILITY TESTING” (priority 2023, published 2025)
